The values below come from patent US20190330189A1, “ANTIBACTERIAL COMPOUNDS” (Janssen Sciences Ireland UC, priority 2015, published 2019).

Data set [1] deals with Mycobacterium tuberculosis strain EH 4.0 (361.269). The experiment in a line: Test 4: MIC determination, resazurin fluorescence, strain EH 4.0. The class given is cell-based. The note with it: for IC50: Mycobacterium tuberculosis, read-out: pIC50, Test 4, M. tuberculosis strain EH 4.0 (361.269) (converted); for pIC50: Test 4, M. tuberculosis strain EH 4.0 (361.269). An excerpt:
TEST 4 (See Also Test 1 Above; in this Test a Different Strain of Mycobacterium tuberculosis Strain is Employed)
Appropriate solutions of experimental and reference compounds were made in 96 well plates with 7H9 medium. Samples of Mycobacterium tuberculosis strain EH 4.0 (361.269) were taken from cultures in stationary growth phase. These were first diluted to obtain an optical density of 0.3 at 600 nm wavelength and then diluted 1/100, resulting in an inoculum of approximately 5×10 exp5 colony forming units per well. Plates were incubated at 37° C. in plastic bags to prevent evaporation. After 7 days, resazurin was added to all wells.
On the technique in general: The colour change of resazurin is a common sign of viable cells or microbes.

Data set [2] deals with Mycobacterium tuberculosis strain H37Rv. Kind of data set: Test 1: MIC determination, resazurin fluorescence, M. tuberculosis H37Rv. The class given is cell-based. The note with it: Mycobacterium tuberculosis, H37RV.

Like-named read-outs stand apart in the source and are kept apart here.

On to `CCc1nc2ccc(Cl)cn2c1C(=O)NCc1ccc(N2CC3(CC(n4cncn4)C3)C2)cc1` [Compound 123], for which the melting point – broadly, the temperature, or range, at which the solid turns liquid – is 166.63 °C. Further, the IC50 in data set [1] was 1580 nM.

As for `CCc1nc2ncc(Cl)cn2c1C(=O)NCc1ccc(N2CCC3(CC2)CC(OC(F)(F)F)C3)cc1` [Compound 153], the melting point is 150.61 °C. In data set [1], the IC50 was 2 nM.

For the compound `CCc1nc2ccc(Cl)cn2c1C(=O)NCc1ccc(N2CC3(CC(c4ccnn4C)C3)C2)cc1` [Compound 158], the melting point was found to be 101.95 °C. Moreover, in data set [1], the IC50 was 398 nM.

As to `CCc1nc2ccc(Cl)cn2c1C(=O)NCc1ccc(C2CC3(C2)CN(c2cccnc2)C3)cc1` [Compound 119], the melting point stood at 147.85 °C. In addition, the IC50 in data set [1] is 631 nM.

Compound `CCc1nn2ccccc2c1C(=O)NCc1ccc(C2CC3(C2)CN(c2ccc(OC(F)(F)F)cc2)C3)cc1` [Compound 138] displayed a melting point of 105.98 °C. Further, the IC50 in data set [1] is 39.8 nM.

Compound `CCc1nc2ncc(Cl)cn2c1C(=O)NCc1ccc(N2CC3(C2)CN(c2ccc(OC(F)(F)F)cc2)C3)cc1` [Compound 5] showed a melting point of 242.43 °C. Also, the IC50 in data set [1] was 31.6 nM. Also, the IC50 in data set [2] (Test 1, M. tuberculosis H37Rv, first test, read-out: pIC50 (converted)) is 69.2 nM. In addition, the IC50 in data set [2] (Test 1, repeated (2nd) test, read-out: pIC50 * (converted)) is 74.1 nM. Besides, the IC50 in data set [2] (Test 1, repeated (3rd) test, read-out: pIC50 ** (converted)) was 74.1 nM.

On to `Cc1nn2ccccc2c1C(=O)NCc1ccc(N2CC3(C2)CN(c2ccc(OC(F)(F)F)cc2)C3)cc1` [Compound 142], for which the melting point was 193.19 °C. Further, in data set [1], the IC50 is 126 nM.

`CCc1nc2ccc(Cl)cn2c1C(=O)NCc1ccc(N2CC3(CC(c4ccncc4)C3)C2)cc1` [Compound 89] yielded a melting point of 192.86 °C. In addition, the IC50 in data set [1] was 6310 nM.

The compound `Cc1nn2ccccc2c1C(=O)NCc1ccc(C2CC3(C2)CN(c2ccccc2)C3)cc1` [Compound 127] yielded a melting point of 201.15 °C. In data set [1], the IC50 was 126 nM and the pIC50 (commonly the negative decadic logarithm of the IC50, by convention in mol/L) is recorded as 7.0.

Take `CCc1nc2sc(C)cn2c1C(=O)NCc1ccc(N2CC3(CC(c4ccc(OC(F)(F)F)cc4)C3)C2)cc1` [Compound 83]: the melting point came out at 108.84 °C. Further, in data set [1], the IC50 is 100 nM.

`CCc1nc2ccc(Cl)cn2c1C(=O)NCc1ccc(C2CC3(C2)CN(C(=O)C(F)(F)F)C3)cc1` [Compound 92] returned a melting point of 80.75 °C. Moreover, in data set [1], the IC50 is 251 nM.

`CCc1nc2ccc(Cl)cn2c1C(=O)NCC1CC2(C1)CN(c1ccc(OC(F)(F)F)cc1)C2` [Compound 164] registered a melting point of 165.12 °C. Moreover, in data set [1], the IC50 was 7940 nM.

`CCc1nc2ccc(Cl)cn2c1C(=O)NCc1ccc(N2CC3(CC(c4ccccn4)C3)C2)cc1` [Compound 120] yielded a melting point of 139.57 °C. Further, the IC50 in data set [1] is 10000 nM.

On to `CCc1nc2ccc(Cl)cn2c1C(=O)NCc1ccc(N2CC3(CC(OC)C3)C2)cc1` [Compound 84], for which the melting point turned out to be 137.48 °C. In data set [1], the IC50 is 100 nM.

Turning to `CCc1nn2ccccc2c1C(=O)NCc1ccc(C2CC3(C2)CN(c2ccc(S(F)(F)(F)(F)F)cc2)C3)cc1` [Compound 159], the melting point came out at 177.08 °C. Besides, the IC50 in data set [1] was 39.8 nM.

Compound `CCc1nc2n(c1C(=O)NCc1ccc(N3CC4(CC(OC)C4)C3)cc1)CCCC2` [Compound 85] registered a melting point of 147.41 °C. Moreover, the IC50 in data set [1] is 1000 nM.

Compound `CCc1nc2ncc(Cl)cn2c1C(=O)NCc1ccc(N2CC3(CC(OC(F)(F)F)C3)C2)cc1` [Compound 131] yielded a melting point of 172.76 °C. In data set [1], the IC50 is 5.01 nM.

For `CCc1nc2ccc(Cl)cn2c1C(=O)NCc1ccc(N2CC3(CC(c4nccs4)C3)C2)cc1` [Compound 124], the melting point worked out at 135.97 °C. In addition, in data set [1], the IC50 was 79.4 nM and the pIC50 was found to be 7.2.

In the case of `CCc1nc2ccc(Cl)cn2c1C(=O)NCc1ccc(N2CC3(CCC3)C2)cc1` [Compound 163], the melting point was found to be 142.39 °C. The IC50 in data set [1] was 7940 nM.

`CCc1nc2sc(C)cn2c1C(=O)NCc1ccc(N2CC3(CC(O)C3)C2)cc1` [Compound 20] came in with a melting point of 300 °C. Also, the IC50 in data set [1] was 316 nM.

Consider `CCc1nn2ccccc2c1C(=O)NCC1CC2(C1)CN(c1ccc(OC(F)(F)F)cc1)C2` [Compound 165], for which the melting point is 150.69 °C. Moreover, the IC50 in data set [1] was 7940 nM.

Regarding `CCc1nc2ncc(Cl)cn2c1C(=O)NCc1ccc(N2CC3(CC(Oc4ccc(F)cc4)C3)C2)cc1` [Compound 152], the melting point was found to be 350 °C. Besides, in data set [1], the IC50 was 15.8 nM.

The compound `CCc1nc2ccc(Cl)cn2c1C(=O)NCc1ccc(N2CC3(CC(c4ccc(OC)c(F)c4)C3)C2)cc1` [Compound 87] returned a melting point of 190.35 °C. In addition, the IC50 in data set [1] was 251 nM.

In turn, `CCc1nc2n(c1C(=O)NCc1ccc(N3CC4(CC(OC(F)(F)F)C4)C3)cc1)CCCC2` [Compound 130] registered a melting point of 169.56 °C. For the same compound, the IC50 in data set [1] is 15.8 nM.

Compound `CCc1nn2ccccc2c1C(=O)NCc1ccc(N2CC3(C2)CN(c2ccc(OC(F)(F)F)cc2)C3)cc1` [Compound 144] showed a melting point of 135.8 °C. Moreover, in data set [1], the IC50 was 79.4 nM.

For the compound `CCc1nc2ncc(Cl)cn2c1C(=O)NCc1ccc(C2CC3(C2)CN(c2cncnc2)C3)cc1` [Compound 134], the melting point was determined as 188.07 °C. Besides, in data set [1], the IC50 was 6.31 nM.

The compound `CCc1nc2sc(C)cn2c1C(=O)NCc1ccc(N2CC3(C2)CN(c2ccc(OC(F)(F)F)cc2)C3)cc1` [Compound 68] gave a melting point of 180.57 °C. In data set [1], the IC50 was 63.1 nM.

`Cc1nn2ccccc2c1C(=O)NCc1ccc(N2CC3(C2)CN(c2ccc(S(F)(F)(F)(F)F)cc2)C3)cc1` [Compound 162] returned a melting point of 238.06 °C. In addition, the IC50 in data set [1] was 7940 nM.

`Cc1nn2ccccc2c1C(=O)NCc1ccc(C2CC3(C2)CN(c2ccc(OC(F)(F)F)cc2)C3)cc1` [Compound 141] registered a melting point of 158.48 °C. In addition, the IC50 in data set [1] is 31.6 nM.

In turn, `Cc1nn2ccccc2c1C(=O)NCC1CC2(CCN(c3ccc(OC(F)(F)F)cc3)CC2)C1` [Compound 140] showed a melting point of 121.52 °C. In data set [1], the IC50 is 1580 nM.

Consider `Cc1nn2ccccc2c1C(=O)NCc1ccc(C2CC3(C2)CN(c2ccc(S(F)(F)(F)(F)F)cc2)C3)cc1` [Compound 160], for which the melting point turned out to be 166.29 °C. The IC50 in data set [1] is 31.6 nM.

Regarding `CCc1nn2ccccc2c1C(=O)NCc1ccc(N2CC3(CC(c4ccc(OC(F)(F)F)cc4)C3)C2)cc1` [Compound 161], the melting point amounted to 126.57 °C. In addition, the IC50 in data set [1] was 2510 nM.

For `CCc1nc2ncc(Cl)cn2c1C(=O)NCc1ccc(N2CC3(CC(c4ccc(OC)c(F)c4)C3)C2)cc1` [Compound 88], the melting point amounted to 156.54 °C. The IC50 in data set [1] was 251 nM.

Consider `CCc1nc2ccc(Cl)cn2c1C(=O)NCc1ccc(N2CC3(C2)CC2(C3)OCCCO2)cc1` [Compound 95], for which the melting point worked out at 154.23 °C. Also, in data set [1], the IC50 is 158 nM.

`CCc1nc2ccc(Cl)cn2c1C(=O)NCc1ccc(N2CC3(CN(C(=O)c4ccccc4)C3)C2)cc1` [Compound 91]: the melting point worked out at 204.21 °C. Further, the IC50 in data set [1] was 10000 nM.

With `CCc1nc2ccc(Cl)cn2c1C(=O)NCc1ccc(C2CC3(C2)CN(c2cnccn2)C3)cc1` [Compound 132], the melting point worked out at 149.46 °C. Moreover, the IC50 in data set [1] was 7940 nM.

For the compound `CCc1nc2ncc(Cl)cn2c1C(=O)NCc1ccc(C2CC3(C2)CN(C(=O)C(F)(F)F)C3)cc1` [Compound 128], the melting point was 160.59 °C. The IC50 in data set [1] is 31.6 nM.

With `CCc1nc2c(F)cccn2c1C(=O)NCc1ccc(C2CC3(C2)CN(c2ccc(OC(F)(F)F)cc2)C3)cc1` [Compound 157], the melting point was determined as 144.55 °C. Further, the IC50 in data set [1] is 7940 nM.

The compound `CCc1nc2ncc(Cl)cn2c1C(=O)NCc1ccc(N2CC3(C2)CC(F)(F)C3)cc1` [Compound 148] gave a melting point of 158.14 °C. Further, the IC50 in data set [1] was 15.8 nM.

For the compound `CCc1nc2ncc(Cl)cn2c1C(=O)NCc1ccc(C2CC3(C2)CN(c2cccnc2)C3)cc1` [Compound 122], the melting point came to 161.23 °C. For the same compound, the IC50 in data set [1] is 794 nM.

The compound `Cc1nn2ccccc2c1C(=O)NCc1ccc(N2CC3(CN(F)C3)C2)cc1` [Compound 143] showed a melting point of 130.31 °C. In addition, in data set [1], the IC50 was 398 nM.

With `CCc1nc2ncc(Cl)cn2c1C(=O)NCc1ccc(N2CC3(C2)CN(c2cccnc2)C3)cc1` [Compound 121], the melting point was determined as 241.08 °C. Moreover, the IC50 in data set [1] was 2510 nM.

Compound `CCc1nc2ccc(Cl)cn2c1C(=O)NCc1ccc(N2CC3(CN(C(C)=O)C3)C2)cc1` [Compound 90] returned a melting point of 237.63 °C. Moreover, the IC50 in data set [1] is 12600 nM.

On to `CCc1nn2c(c1C(=O)NCc1ccc(C3CC4(C3)CN(c3ccc(OC(F)(F)F)cc3)C4)cc1)CCCC2` [Compound 139], for which the melting point is 135.21 °C. Moreover, the IC50 in data set [1] was 7940 nM.

As for `CCc1nc2ccc(Cl)cn2c1C(=O)NCc1ccc(N2CCC3(C2)CN(c2ccc(OC(F)(F)F)cc2)C3)cc1` [Compound 75], the melting point amounted to 183.86 °C. Also, in data set [1], the IC50 was 15.8 nM.
